Series [1] in a line: Cytotoxicity against human H460 cells. In kind it is functional, cell-based. As to conditions: NCI-H460.
The subject of another series is MCF7. The series is described as follows: Cytotoxicity against human MCF7 cells. Type of series: functional, cell-based.
In a further series the test system is A2780. The series is described as follows: Cytotoxicity against human A2780 cells. In kind it is functional, cell-based.
The next series concerns B16. The series is described as follows: Cytotoxicity against mouse B16 cells. Type of series: functional, cell-based.
In the next series the test system is CCRF-CEM. The series is described as follows: Growth inhibition of human CCRF-CEM cells. Type of series: functional.
For a further series, the system named is SR. The series is described as follows: Growth inhibition of human SR cells. Type of series: functional.
For series [2], the species on record is Homo sapiens. The experiment in a line: Toxicity in metastatic breast cancer patient assessed as incidence of neuropathy. In kind it is organism-based. Particulars: in vivo.
The species entered for series [3] is Homo sapiens. The experiment in a line: Toxicity in metastatic breast cancer patient assessed as incidence of peripheral neuropathy. As to conditions: in vivo. In kind it is organism-based.
The species named for series [4] is Homo sapiens. The series is described as follows: Toxicity in metastatic breast cancer patient assessed as neuropathy rate. Type of series: organism-based. Particulars: in vivo.

The text below walks through data of ChEMBL document CHEMBL3425505, “Selected hybrid natural products as tubulin modulators” (Eur J Med Chem, 2015).

≈ marks a conversion by molar mass, not a printed value.

As for `CO[C@H]1/C=C(/C)CCC[C@H](C)[C@H](O)[C@@H](C)C(=O)C(C)(C)[C@@H](O)CC(=O)O[C@@H]1/C(C)=C/c1csc(C)n1`, the IC50 stood at 4.9 nM in series [1] and 3.7 nM in the series with MCF7.
In turn, `C/C(=C\c1csc(C)n1)[C@@H]1C[C@@H]2O[C@@H]2CCC[C@@H]2CCC[C@@H](C(=O)C(C)(C)[C@@H](O)CC(=O)O1)[C@H]2O` showed an EC50 in the series with A2780 of 8500 nM.
Turning to `C/C(=C\c1csc(C)n1)[C@@H]1C[C@@H]2O[C@]2(C)CCC[C@@H]2CCC[C@@H](C(=O)C(C)(C)[C@@H](O)CC(=O)O1)[C@H]2O`, it took 8500 nM to reach a half-maximal effect in the series on A2780 (EC50).
Consider `C=C1C[C@@H]2CC[C@@]34O[C@@H]5[C@@H]6O[C@](O)([C@H](O3)[C@@H]6O[C@H]3CC[C@H](CC(=O)O[C@@H]6[C@@H](C)[C@@H]7O[C@@H]8C[C@]9(C[C@@H]%10O[C@]%11(C[C@H](C)[C@@H]%12O[C@H](CC(=O)O)[C@H](O)C[C@@H]%12O%11)C[C@H](C)[C@@H]%10O9)O[C@@H]8C[C@@H]7O[C@H]6C[C@H]6O[C@@H](CC[C@@H]1O2)C[C@@H](C)C6=C)O[C@H]53)[C@H]4O`, for which the IC50 in the series on B16 was found to be 5 ng/mL (≈ 4.44 nM).
In the case of `CC1=C(c2ccc(C)cn2)CC2/C=C(/C)CCC[C@H](C)[C@H](O)[C@@H](C)C(=O)C(C)(C)[C@@H](O)CC(=O)O[C@H]12` (single isomer, unassigned), the GI50 with CCRF-CEM came out at 2.7 nM; with SR, 2.9 nM.
Consider `C=C1C[C@@H]2CC[C@@]34C[C@H]5O[C@H]6[C@@H](O3)[C@H]3O[C@H](CC[C@@H]3O[C@H]6[C@H]5O4)CC(=O)C[C@@H]3[C@@H](OC)[C@@H](C[C@H](O)CN)O[C@H]3C[C@H]3O[C@@H](CC[C@@H]1O2)C[C@@H](C)C3=C` [ERIBULIN], for which the Activity in the series listed under Homo sapiens [2] is 33.3%; in the series filed under Homo sapiens [3] it was 31.4%; in the series listed under Homo sapiens [4], 35%.
With `C/C(=C\c1csc(C)n1)[C@@H]1C[C@@H]2O[C@]2(C)CCC[C@H](C)[C@H](O)[C@@H](C)C(=O)C(C)(C)[C@@H](O)CC(=O)N1` [IXABEPILONE], the Activity turned out to be 48% in the series filed under Homo sapiens [2], 44% in the series filed under Homo sapiens [3] and 63% in the series filed under Homo sapiens [4].

For orientation: IC50 means the midpoint of a concentration-inhibition curve. The low end stands for inhibition by little substance, the high end for a need for much substance. One may read the EC50 as the concentration giving half of the maximal effect. Lower therefore signals greater potency. The GI50 is the concentration giving 50% growth inhibition.
